Data: paper PMC6934700, “Structure-Guided Design of a Fluorescent Probe for the Visualization of FtsZ in Clinically Important Gram-Positive and Gram-Negative Bacterial Pathogens” (Scientific Reports, 2019)
Like-named read-outs stand apart in the source and are kept apart here.

Experiments:
S. aureus (SaFtsZ) = biological target: T1, S. aureus (SaFtsZ) (Staphylococcus aureus, UniProt P0A031); test: biochemical; assay type: binding
T1 construct: 6xHis (C); made in house; host or cells: E. coli BLR (DE3), pET-22b(+)
T1 sequence (P0A031 1-390): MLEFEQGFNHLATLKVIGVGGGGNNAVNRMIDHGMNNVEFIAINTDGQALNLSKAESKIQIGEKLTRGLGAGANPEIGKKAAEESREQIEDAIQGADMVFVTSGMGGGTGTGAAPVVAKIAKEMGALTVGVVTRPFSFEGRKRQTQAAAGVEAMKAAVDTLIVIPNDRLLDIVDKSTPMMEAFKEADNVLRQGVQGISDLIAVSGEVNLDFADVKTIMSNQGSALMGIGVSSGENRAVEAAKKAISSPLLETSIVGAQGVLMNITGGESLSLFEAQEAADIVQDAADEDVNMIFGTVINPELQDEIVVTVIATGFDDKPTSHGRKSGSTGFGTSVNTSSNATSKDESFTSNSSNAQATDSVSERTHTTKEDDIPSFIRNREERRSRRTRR
Description: (§1) Fluorescence anisotropy experiments were performed using an AVIV model ATF105 spectrofluorometer at 15, 25, or 37 °C. In these experiments, bandwidths were set to 4 nm in both the excitation and emission directions, with the excitation and emission wavelengths being set at 488 nm and 510 nm, respectively. BOFP (0.1 µM) was titrated with increasing concentrations (ranging from 0 to 12 µM) of FtsZ in 120 µL of buffer containing 50 mM Tris-HCl (pH 7.6) and 50 mM KCl. After each protein addition, the samples were equilibrated for 3 minutes, whereupon the fluorescence anisotropy was measured.
(§2) In this equation, r0 is the anisotropy of the protein-free compound, r∞ is the anisotropy of the compound in the presence of an infinite concentration of FtsZ, [C]tot is the total concentration of the compound, and [P]tot is the total concentration of protein with each addition. These analyses yielded the equilibrium dissociation constant (Kd) for each binding reaction.
(§3) The binding free energy (ΔG) at temperature T was derived from the corresponding Kd value determined at T using the following relationship:2 ΔG=−RTln(1/Kd)
(§4) The binding enthalpy (ΔH) and entropy (ΔS) were derived from linear fits of the ln(1/Kd) vs. 1/T plots shown in Figs. 3f and 5e using the following relationship:3 ln(1/Kd)=−ΔH/R(1/T)+ΔS/R
The impact of guanosine nucleotide and magnesium on the binding of BOFP to SaFtsZ was assessed at 37 °C in the same buffer described above. In these studies, the anisotropy of 0.1 µM BOFP alone or in the presence of 10 µM SaFtsZ was measured, with the latter also being measured in the presence of 0.1 mM GMPCPP (a non-hydrolyzable GTP analog), 10 mM MgCl2, or both.
(§5) In comparative control experiments, the anisotropy of 0.1 µM BODIPY FL-COOH or BOFP alone or in the presence of SaFtsZ (10 µM), SpyFtsZ (10 µM), KpFtsZ (2 µM), or PaFtsZ (2 µM) was measured at 37 °C in the same buffer described above.

S. pneumoniae (SpnFtsZ) = biological target: T2, S. pneumoniae (SpnFtsZ) (Streptococcus pneumoniae, UniProt A0A0H2ZNE0); test: Fluorescence anisotropy binding of BOFP to SpnFtsZ; conditions: for Kd: 50 mM Tris-HCl (pH 7.6), 50 mM KCl, 0.1 µM BOFP
T2 sequence (A0A0H2ZNE0 1-419): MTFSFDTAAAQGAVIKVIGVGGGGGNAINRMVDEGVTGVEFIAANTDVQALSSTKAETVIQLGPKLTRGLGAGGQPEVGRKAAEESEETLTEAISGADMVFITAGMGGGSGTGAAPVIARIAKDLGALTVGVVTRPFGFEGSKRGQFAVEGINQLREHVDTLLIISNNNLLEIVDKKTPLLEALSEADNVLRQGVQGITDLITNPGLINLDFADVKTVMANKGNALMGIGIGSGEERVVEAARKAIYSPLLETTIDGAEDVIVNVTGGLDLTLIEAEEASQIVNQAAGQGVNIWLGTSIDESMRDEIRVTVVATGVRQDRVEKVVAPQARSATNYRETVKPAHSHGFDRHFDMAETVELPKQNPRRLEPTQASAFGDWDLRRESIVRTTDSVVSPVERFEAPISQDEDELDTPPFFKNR
Description: as §1, §2, §3, §4

E. coli (EcFtsZ) = E. coli (EcFtsZ) (Escherichia coli, UniProt P0A9A6); test: Fluorescence anisotropy binding of BOFP to EcFtsZ; conditions: for Kd: 50 mM Tris-HCl (pH 7.6), 50 mM KCl, 0.1 µM BOFP
Description: as §1, §2, §3, §4

S. pyogenes (SpyFtsZ) = S. pyogenes (SpyFtsZ) (Streptococcus pyogenes, UniProt Q99YV7); test: Fluorescence anisotropy binding of BOFP to SpyFtsZ; conditions: for Kd: 50 mM Tris-HCl (pH 7.6), 50 mM KCl, 0.1 µM BOFP
Description: as §1, §2, §3, §4, §5

E. faecium (EfmFtsZ) = biological target: T3, E. faecium (EfmFtsZ) (Enterococcus faecium, UniProt Q3Y2I1); test: Fluorescence anisotropy binding of BOFP to EfmFtsZ; conditions: for Kd: 50 mM Tris-HCl (pH 7.6), 50 mM KCl, 0.1 µM BOFP
T3 sequence (Q3Y2I1 1-413): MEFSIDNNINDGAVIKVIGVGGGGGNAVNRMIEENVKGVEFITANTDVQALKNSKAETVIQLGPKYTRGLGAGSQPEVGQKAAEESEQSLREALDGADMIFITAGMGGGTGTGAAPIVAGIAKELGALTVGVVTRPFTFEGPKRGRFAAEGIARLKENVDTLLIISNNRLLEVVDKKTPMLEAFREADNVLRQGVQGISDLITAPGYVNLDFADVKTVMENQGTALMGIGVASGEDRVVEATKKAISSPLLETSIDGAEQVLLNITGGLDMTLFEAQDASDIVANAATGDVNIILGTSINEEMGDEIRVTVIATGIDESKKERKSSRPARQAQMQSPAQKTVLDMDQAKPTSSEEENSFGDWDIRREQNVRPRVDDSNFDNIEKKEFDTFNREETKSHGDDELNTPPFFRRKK
Description: as §1, §2, §3, §4

[1] = calculated at T = 310 K (37 °C) from Kd
[2] = from linear fit of ln(1/Kd) vs. 1/T

Sequence of E. coli (EcFtsZ) (P0A9A6 whole entry): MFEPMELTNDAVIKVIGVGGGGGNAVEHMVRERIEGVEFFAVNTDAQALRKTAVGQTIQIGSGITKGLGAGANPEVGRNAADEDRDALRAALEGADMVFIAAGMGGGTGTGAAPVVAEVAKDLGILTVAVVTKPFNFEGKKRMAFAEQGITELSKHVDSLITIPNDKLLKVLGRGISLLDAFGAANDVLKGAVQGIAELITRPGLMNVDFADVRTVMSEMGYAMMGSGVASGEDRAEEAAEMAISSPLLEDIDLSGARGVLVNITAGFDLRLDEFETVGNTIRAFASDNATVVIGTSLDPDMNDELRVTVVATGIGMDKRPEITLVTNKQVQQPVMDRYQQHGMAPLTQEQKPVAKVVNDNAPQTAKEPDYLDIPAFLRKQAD
Sequence of S. pyogenes (SpyFtsZ) (Q99YV7 entry or part of it): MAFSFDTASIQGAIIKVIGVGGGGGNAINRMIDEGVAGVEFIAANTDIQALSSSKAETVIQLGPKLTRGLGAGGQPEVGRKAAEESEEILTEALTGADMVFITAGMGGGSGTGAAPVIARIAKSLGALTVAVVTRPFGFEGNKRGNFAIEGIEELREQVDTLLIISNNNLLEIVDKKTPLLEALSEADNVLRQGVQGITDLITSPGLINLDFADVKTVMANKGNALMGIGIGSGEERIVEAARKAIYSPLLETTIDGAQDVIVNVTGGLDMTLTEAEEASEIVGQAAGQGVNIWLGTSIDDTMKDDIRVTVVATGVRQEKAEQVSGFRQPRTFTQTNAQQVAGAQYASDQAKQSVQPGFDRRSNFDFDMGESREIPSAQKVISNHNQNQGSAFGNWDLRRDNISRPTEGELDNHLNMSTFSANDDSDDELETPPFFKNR

## CC1=CC(C)=[N+]2C1=Cc1ccc(CCC(=O)OCC(Oc3ccc(F)c(C(N)=O)c3F)c3nc(-c4ccc(C(F)(F)F)cc4)c(Br)o3)n1[B-]2(F)F (stereo not shown) [BOFP]
S. aureus (SaFtsZ); 0.1 µM BOFP, 10 µM SaFtsZ, 0.1 mM GMPCPP and 10 mM MgCl2, 37 °C
  Effect of both GMPCPP and MgCl2 on anisotropy of SaFtsZ-bound BOFP: modest increase in the anisotropy
S. aureus (SaFtsZ); 0.1 µM BOFP, 10 µM SaFtsZ, 0.1 mM GMPCPP or 10 mM MgCl2, 37 °C
  Effect of GMPCPP alone or MgCl2 alone on anisotropy of SaFtsZ-bound BOFP: neither GMPCPP alone (at 0.1 mM) nor MgCl2 alone (at 10 mM) has a significant effect
S. aureus (SaFtsZ); 15 °C, 50 mM Tris-HCl (pH 7.6), 50 mM KCl, 0.1 µM BOFP, read-out: Kd - 15 °C
  Kd: 880 ± 80 nM
S. aureus (SaFtsZ); 25 °C, 50 mM Tris-HCl (pH 7.6), 50 mM KCl, 0.1 µM BOFP, read-out: Kd - 25 °C
  Kd: 1660 ± 120 nM
S. aureus (SaFtsZ); 37 °C, 50 mM Tris-HCl (pH 7.6), 50 mM KCl, 0.1 µM BOFP, read-out: Kd - 37 °C
  Kd: 3140 ± 130 nM
S. aureus (SaFtsZ); [1]
  ΔG: -7.8 ± 0.1 kcal/mol
S. aureus (SaFtsZ); [2]
  ΔH: -10.2 ± 0.3 kcal/mol
  ΔS: −7.8 ± 1.0 cal/mol•K
S. aureus (SaFtsZ); range over 15 to 37 °C, read-out: Kd range
  Kd: 900 to 3100 nM
S. pneumoniae (SpnFtsZ); 15 °C, read-out: Kd - 15 °C
  Kd: 3020 ± 300 nM
S. pneumoniae (SpnFtsZ); 25 °C, read-out: Kd - 25 °C
  Kd: 3490 ± 250 nM
S. pneumoniae (SpnFtsZ); 37 °C, read-out: Kd - 37 °C
  Kd: 3810 ± 690 nM
S. pneumoniae (SpnFtsZ); [1]
  ΔG: -7.7 ± 0.1 kcal/mol
S. pneumoniae (SpnFtsZ); [2]
  ΔH: -1.9 ± 0.3 kcal/mol
E. coli (EcFtsZ); 15 °C, read-out: Kd - 15 °C
  Kd: 220 ± 30 nM
E. coli (EcFtsZ); 25 °C, read-out: Kd - 25 °C
  Kd: 280 ± 20 nM
E. coli (EcFtsZ); 37 °C, read-out: Kd - 37 °C
  Kd: 440 ± 40 nM
E. coli (EcFtsZ); [1]
  ΔG: -9.0 ± 0.1 kcal/mol
E. coli (EcFtsZ); [2]
  ΔH: -5.6 ± 0.8 kcal/mol
S. pyogenes (SpyFtsZ); 15 °C, read-out: Kd - 15 °C
  Kd: 910 ± 60 nM
S. pyogenes (SpyFtsZ); 25 °C, read-out: Kd - 25 °C
  Kd: 1310 ± 80 nM
S. pyogenes (SpyFtsZ); 37 °C, read-out: Kd - 37 °C
  Kd: 1550 ± 80 nM
S. pyogenes (SpyFtsZ); [1]
  ΔG: -8.2 ± 0.1 kcal/mol
S. pyogenes (SpyFtsZ); [2]
  ΔH: -4.3 ± 1.1 kcal/mol
E. faecium (EfmFtsZ); 15 °C, read-out: Kd - 15 °C
  Kd: 2500 ± 140 nM
E. faecium (EfmFtsZ); 25 °C, read-out: Kd - 25 °C
  Kd: 2620 ± 80 nM
E. faecium (EfmFtsZ); 37 °C, read-out: Kd - 37 °C
  Kd: 3140 ± 220 nM
E. faecium (EfmFtsZ); [2]
  ΔH: -1.9 ± 0.6 kcal/mol
